Like-named read-outs stand apart in the source and are kept apart here.
Columns and labels:
A549 cells = assay: In vitro cytotoxicity (MTT) on A549; format: cell-based; conditions: Homo sapiens, afatinib: 48 hour exposure, read-out: IC50 (half maximal inhibitory concentration)
Experimental: (§1) A549, MDA-MB-231 and SKOV-3 cells were seeded (5×10^3 cells/well) in 96-well plates and incubated overnight. Free Afatinib, Afatinib loaded PLGA NPs, anti HER-2 PLGA NPs, Jurkat-T-MNPs, and CAR-T-MNPs were added to the seeded cells (n=4). Alternatively, free cisplatin, cisplatin loaded PLGA NPs, Jurkat-T-MNPs, and CAR-T-MNPs were added to the seeded cells (n=4) at a cisplatin concentration of 7 μM (A549) & 3.5 μM (SKOV-3). After incubation for 48 hours, the absorbance at 490 nm was measured using UV-VIS Spectrophotometer (Tecan) after incubating with MTT reagent (Promega) for one hour. Cell viabilities were calculated via normalizing to the control group (cells exposed to complete media, 100% viability).

MDA-MB-231 cells = assay: In vitro cytotoxicity (MTT) on MDA-MB-231; format: cell-based; conditions: Homo sapiens; MDA-MB-231, 48 hour exposure
Experimental: as §1

SKOV-3 cells = assay: In vitro cytotoxicity (MTT) on SKOV-3; format: cell-based; conditions: read-out: IC50 (half maximal inhibitory concentration)
Experimental: as §1

[1] = test system: subcutaneous A549 tumor implanted in nude mice; assay: In vivo therapeutic efficiency (tumor delay, survival, weight, H&E histology); conditions: 2-week post treatment, single IV dose, cisplatin 3 mg/kg
Experimental: Nude mice (NU/J) aged 5-6 weeks were purchased from Jacksons Laboratory. Briefly, 2×10^6 A549 cells in 200 μL of Matrigel (Corning, NY) were injected subcutaneously in athymic nude mice. Tumor volumes were checked at regular intervals of 3 days and treatment started when the volume reached ˜300 mm3. Tumor volumes were measured using a standard Vernier Calipers. All procedures involving experimental animals were performed in accordance with the protocols approved by the University of Texas at Arlington Institutional Animal Care and Use Committee.
Xenograft tumors as described above were used to evaluate the therapeutic efficiency of CAR-T-MNPs. After the tumor reached ˜300 mm3, the mice were randomly distributed into 4 groups (n=3) for different treatment groups. Prior to treatment, all mice were ear-tagged, the initial tumor volumes were measured by a caliper, and the body weights were recorded. The treatment groups received a single tail-vein IV administration of either of 200 μL of saline (control), free drug, Jurkat-T-MNPs or CAR-T-MNPs. Tumor volume was measured every 2-3 days via a caliper. Tumor volumes were calculated by measuring the tumor perpendicular diameters with a caliper and calculated using the formula V=½×a×b2, where a and b are the longest diameter and its longest perpendicular diameter, respectively. […]

CN(C)C/C=C/C(=O)Nc1cc2c(Nc3ccc(F)c(Cl)c3)ncnc2cc1O[C@H]1CCOC1 [afatinib, Afatinib]
IC50 (A549 cells): ~4.3 µM
IC50 (MDA-MB-231 cells): ~3.7 µM
IC50 (SKOV-3 cells; Homo sapiens, SK-OV-3, afatinib: 48 hour exposure): ~1400 nM

N.N.[Cl][Pt][Cl] [cisplatin, Cisplatin]
tumor volume [1]: increasing trend
IC50 (SKOV-3 cells; afatinib: 48 hour exposure): 4000 nM
